Earlier results, collected in PMC5594551, “Heterogeneous drug penetrance of veliparib and carboplatin measured in triple negative breast tumors” (Breast Cancer Research : BCR, 2017).

Tests used:
MDA-MB-436 = conditions: MDA-MB-436, BRCA1-mutated; ref [24]; cited from earlier work
HCC70 = conditions: ref [24]; cited from earlier work

SMILES: O=C(c1cc(Cc2n[nH]c(=O)c3ccccc23)ccc1F)N1CCN(C(=O)C2CC2)CC1 [olaparib]
- Sensitivity in vitro (MDA-MB-436): sensitivity
- Sensitivity in vitro (HCC70): sensitive
